Measured values as given in PubChem BioAssay (NCI).
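In this assay, cells in 96-well plates receive the compound at five concentrations for 48 hours. Endpoints are linearly interpolated between the surrounding concentrations. At the GI50, growth is halved. TGI: concentration producing complete growth inhibition.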

Legend:
Assay in all cases: NCI-60 cell line screen, 48 h
COLO 205 colon = system: COLO 205 colon
MCF7 breast = system: MCF7 breast
SNB-75 CNS = system: SNB-75 CNS
U251 CNS = system: U251 CNS
MALME-3M melanoma = system: MALME-3M melanoma
TK-10 renal = system: TK-10 renal
OVCAR-3 ovarian = system: OVCAR-3 ovarian
ACHN renal = system: ACHN renal
SW-620 colon = system: SW-620 colon
SF-268 CNS = system: SF-268 CNS
BT-549 breast = system: BT-549 breast
SF-295 CNS = system: SF-295 CNS
M14 melanoma = system: M14 melanoma
SNB-19 CNS = system: SNB-19 CNS
NCI-H460 lung = system: NCI-H460 lung
SN12C renal = system: SN12C renal
SK-MEL-2 melanoma = system: SK-MEL-2 melanoma
K-562 leukemia = system: K-562 leukemia
UACC-62 melanoma = system: UACC-62 melanoma
MDA-MB-231 breast = system: MDA-MB-231 breast
HS 578T breast = system: HS 578T breast
SK-MEL-28 melanoma = system: SK-MEL-28 melanoma
A549 NSCLC = system: A549 NSCLC
IGROV1 ovarian = system: IGROV1 ovarian
HL-60(TB) leukemia = system: HL-60(TB) leukemia
MDA-MB-435 = system: MDA-MB-435
LOX IMVI melanoma = system: LOX IMVI melanoma
CCRF-CEM leukemia = system: CCRF-CEM leukemia
CAKI-1 renal = system: CAKI-1 renal
DU-145 prostate = system: DU-145 prostate
MDA-MB-468 breast = system: MDA-MB-468 breast
PC-3 prostate = system: PC-3 prostate
NCI-H226 lung = system: NCI-H226 lung
OVCAR-8 ovarian = system: OVCAR-8 ovarian
NCI-H522 lung = system: NCI-H522 lung
UACC-257 melanoma = system: UACC-257 melanoma
OVCAR-5 ovarian = system: OVCAR-5 ovarian
OVCAR-4 ovarian = system: OVCAR-4 ovarian
UO-31 renal = system: UO-31 renal
SK-MEL-5 melanoma = system: SK-MEL-5 melanoma
EKVX NSCLC = system: EKVX NSCLC
RXF 393 renal = system: RXF 393 renal
A498 renal = system: A498 renal
NCI-H23 lung = system: NCI-H23 lung
786-0 renal = system: 786-0 renal
HOP-92 NSCLC = system: HOP-92 NSCLC
HT29 colon = system: HT29 colon
SR leukemia = system: SR leukemia
SF-539 CNS = system: SF-539 CNS
HCT-116 colon = system: HCT-116 colon
HOP-62 NSCLC = system: HOP-62 NSCLC
HCC-2998 colon = system: HCC-2998 colon
RPMI-8226 leukemia = system: RPMI-8226 leukemia
T-47D breast = system: T-47D breast
MOLT-4 leukemia = system: MOLT-4 leukemia
SK-OV-3 ovarian = system: SK-OV-3 ovarian
KM12 colon = system: KM12 colon
HCT-15 colon = system: HCT-15 colon

COc1cc(/C=N/NC(=O)c2ccc3nc(-c4ccc(Cl)cc4)[nH]c3c2)cc(OC)c1OC
GI50 (COLO 205 colon): 2.84 µM
TGI (COLO 205 colon): 24.4 µM
GI50 (MCF7 breast): 0.663 µM
TGI (MCF7 breast): 12.5 µM
GI50 (SNB-75 CNS): 1.28 µM
TGI (SNB-75 CNS): 6.68 µM
GI50 (U251 CNS): 2.59 µM
TGI (U251 CNS): 5.9 µM
GI50 (MALME-3M melanoma): 1.12 µM
TGI (MALME-3M melanoma): 3.36 µM
GI50 (TK-10 renal): 28.8 µM
TGI (TK-10 renal): > 100 µM
GI50 (OVCAR-3 ovarian): 2.28 µM
TGI (OVCAR-3 ovarian): 4.88 µM
GI50 (ACHN renal): 7.93 µM
TGI (ACHN renal): > 100 µM
GI50 (SW-620 colon): 4.4 µM
TGI (SW-620 colon): 17.4 µM
GI50 (SF-268 CNS): 4.4 µM
TGI (SF-268 CNS): 20.5 µM
GI50 (BT-549 breast): 2.69 µM
TGI (BT-549 breast): 9.27 µM
GI50 (SF-295 CNS): 4.18 µM
TGI (SF-295 CNS): 15.9 µM
GI50 (M14 melanoma): 3.77 µM
TGI (M14 melanoma): 21.1 µM
GI50 (SNB-19 CNS): 3.42 µM
TGI (SNB-19 CNS): 10.5 µM
GI50 (NCI-H460 lung): 3.19 µM
TGI (NCI-H460 lung): 10.2 µM
GI50 (SN12C renal): 3.22 µM
TGI (SN12C renal): 11 µM
GI50 (SK-MEL-2 melanoma): 11 µM
TGI (SK-MEL-2 melanoma): 25 µM
GI50 (K-562 leukemia): 1.96 µM
TGI (K-562 leukemia): 6.33 µM
GI50 (UACC-62 melanoma): 1.24 µM
TGI (UACC-62 melanoma): 12.2 µM
GI50 (MDA-MB-231 breast): 3.39 µM
TGI (MDA-MB-231 breast): 11.1 µM
GI50 (HS 578T breast): 2.58 µM
TGI (HS 578T breast): 7 µM
GI50 (SK-MEL-28 melanoma): 1.83 µM
TGI (SK-MEL-28 melanoma): 6.78 µM
GI50 (A549 NSCLC): 7.55 µM
TGI (A549 NSCLC): 38.4 µM
GI50 (IGROV1 ovarian): 11 µM
TGI (IGROV1 ovarian): 30.8 µM
GI50 (HL-60(TB) leukemia): 3.9 µM
TGI (HL-60(TB) leukemia): 60.4 µM
GI50 (MDA-MB-435): 4.13 µM
TGI (MDA-MB-435): 15.3 µM
GI50 (LOX IMVI melanoma): 4.67 µM
TGI (LOX IMVI melanoma): 16.1 µM
GI50 (CCRF-CEM leukemia): 6.27 µM
TGI (CCRF-CEM leukemia): > 100 µM
GI50 (CAKI-1 renal): 11.2 µM
TGI (CAKI-1 renal): 30.8 µM
GI50 (DU-145 prostate): 6.77 µM
TGI (DU-145 prostate): 20.9 µM
GI50 (MDA-MB-468 breast): 3.27 µM
TGI (MDA-MB-468 breast): 10.1 µM
GI50 (PC-3 prostate): 5.73 µM
TGI (PC-3 prostate): > 100 µM
GI50 (NCI-H226 lung): 1.31 µM
TGI (NCI-H226 lung): 16.1 µM
GI50 (OVCAR-8 ovarian): 3.87 µM
TGI (OVCAR-8 ovarian): 18.9 µM
GI50 (NCI-H522 lung): 4.9 µM
TGI (NCI-H522 lung): 20.9 µM
GI50 (UACC-257 melanoma): 4.67 µM
TGI (UACC-257 melanoma): 18.8 µM
GI50 (OVCAR-5 ovarian): 15.6 µM
TGI (OVCAR-5 ovarian): 41.2 µM
GI50 (OVCAR-4 ovarian): 2.35 µM
TGI (OVCAR-4 ovarian): 7.29 µM
GI50 (UO-31 renal): > 100 µM
TGI (UO-31 renal): > 100 µM
GI50 (SK-MEL-5 melanoma): 2.83 µM
TGI (SK-MEL-5 melanoma): 12.2 µM
GI50 (EKVX NSCLC): 14.8 µM
TGI (EKVX NSCLC): 97.2 µM
GI50 (RXF 393 renal): 2.22 µM
TGI (RXF 393 renal): 9.02 µM
GI50 (A498 renal): 26.4 µM
TGI (A498 renal): 77.6 µM
GI50 (NCI-H23 lung): 4.72 µM
TGI (NCI-H23 lung): 18.8 µM
GI50 (786-0 renal): 4.88 µM
TGI (786-0 renal): 18.7 µM
GI50 (HOP-92 NSCLC): 5.95 µM
TGI (HOP-92 NSCLC): 23.2 µM
GI50 (HT29 colon): 2.98 µM
TGI (HT29 colon): 15.5 µM
GI50 (SR leukemia): 3.76 µM
TGI (SR leukemia): 19.1 µM
GI50 (SF-539 CNS): 2.02 µM
TGI (SF-539 CNS): 6.98 µM
GI50 (HCT-116 colon): 3.26 µM
TGI (HCT-116 colon): 10.6 µM
GI50 (HOP-62 NSCLC): 4.68 µM
TGI (HOP-62 NSCLC): 16.4 µM
GI50 (HCC-2998 colon): 11.1 µM
TGI (HCC-2998 colon): 29.3 µM
GI50 (RPMI-8226 leukemia): 3.21 µM
TGI (RPMI-8226 leukemia): > 100 µM
GI50 (T-47D breast): 3.48 µM
TGI (T-47D breast): 21 µM
GI50 (MOLT-4 leukemia): 3.58 µM
TGI (MOLT-4 leukemia): 28.1 µM
GI50 (SK-OV-3 ovarian): 15 µM
TGI (SK-OV-3 ovarian): 38.1 µM
GI50 (KM12 colon): 4.5 µM
TGI (KM12 colon): 17.9 µM
GI50 (HCT-15 colon): 73 µM
TGI (HCT-15 colon): > 100 µM
